We go through one compound from patent US20050059014A1, “Analytical platform and detection method with the analytes to be determined in a sample as immobilized specific binding partners” (priority 2002, published 2005).

For the assay, the system named is Phospho-p44/42 MAP kinase (pErk2). Description: Cell lysate array on evanescent field sensor platform, detection with antibody A3. It counts as cell-based, human. Conditions: Jurkat cells, staurosporine 10 μM, 180 min.

Protocol: Human T-cell cultures (Jurkat, DMZ # ACC282) are utilized for the detection of biologically relevant protein analytes in “nature-identical” samples. These cells are cultivated at 37° C. in a solution containing RPMI 1640, 10 % FCS (fetal calf serum), 2 mM glutamine, 50 U/ml penicillin, 50 μg/ml streptamycine (cell density at about 0.5−×10^6−1.0×10^6 cells/ml).
Then the cell cultures treated as described above and the untreated cell cultures, respectively, are cooled to 4° C. and formed to pellets by centrifugation at a centrifugal force of 350×g (number of cells at about 10^7).The cells here are simply separated from the medium, without damage to the cells. […]
The fluorescence signals from the various arrays of measurement areas undergo automatic sequential measurement using a ZeptoREADER™ (Zeptosens AG, Benkenstrasse 254, CH-4108 Witterswil). […] Then, for each array, images of the fluorescence signals from the corresponding array are generated, wherein the user can select different exposure times and the number of images to be generated. In the case of measurements for the present example, the excitation wavelength is 633 nm, and the detection of the fluorescence light at the fluorescence wavelength of Cy5 is performed using a cooled camera, an interference filter (transmission 670 nm ±20 nm) for suppression of scattered light being positioned in front of the lens of the camera. […]

`CN[C@@H]1C[C@H]2O[C@@](C)([C@@H]1OC)n1c3ccccc3c3c4c(c5c6ccccc6n2c5c31)C(=O)NC4` [staurosporin, staurosporine]: the “pErk2 signal of the nonstimulated control sample compared with the sample treated with staurosporin” value was “only slightly higher”.
